# How the values were obtained:
# A549 = test: Cytotoxicity against human A549 cells; format: functional, cell-based
# P388 = test: Cytotoxicity against mouse P388 cells; format: functional, cell-based
compound,measurement,setting,value
C[C@@H]1CN2C[C@H]3CCC4=C5[C@@](O)(CC[C@@]56C(=O)[C@@H]1C[C@@H]2[C@@]36C)CC4=O [DAPHNIYUNNINE D],IC50,A549,600 nM
same,IC50,P388,3000 nM

# — ChEMBL document CHEMBL1157308, “Daphniyunnines A-E, alkaloids from Daphniphyllum yunnanense” (J Nat Prod, 2006)
